Measurements from patent US5525600A, “(Thiophen-2-yl)-piperidin or tetrahydropyridin carboxamides” (American Home Products Corporation, priority 1994, dated 1996).
Structures can show the parent of a compound that is named as a salt. Where two headings read alike, the source gives them in different places.

Target: T1, 5-HT1A serotonin receptor (Rattus norvegicus, UniProt P19327)
T1 sequence (P19327 1-422): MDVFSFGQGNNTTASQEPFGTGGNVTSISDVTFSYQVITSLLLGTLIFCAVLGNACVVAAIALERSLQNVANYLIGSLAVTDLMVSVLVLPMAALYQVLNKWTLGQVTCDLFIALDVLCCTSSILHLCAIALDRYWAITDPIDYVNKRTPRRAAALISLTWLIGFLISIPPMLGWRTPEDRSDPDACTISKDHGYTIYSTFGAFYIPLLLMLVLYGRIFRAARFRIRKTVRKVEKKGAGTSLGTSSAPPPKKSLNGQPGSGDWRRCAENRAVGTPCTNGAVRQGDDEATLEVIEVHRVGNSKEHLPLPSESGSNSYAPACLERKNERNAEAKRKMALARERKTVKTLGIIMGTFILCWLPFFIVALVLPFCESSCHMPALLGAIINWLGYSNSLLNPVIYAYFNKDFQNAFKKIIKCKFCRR
Assay: biochemical
Type: binding

[1] = displacement of [^3 H]8-OHDPAT, read-out: 5-HT1A Binding (IC50)

## COc1ccsc1C1CCN(CCC(C(=O)N2CCCCCC2)c2ccccc2)CC1 (stereo not drawn) [Example 3, 1-Azepan-1-yl-4-[4-(3-methoxy-thiophen-2-yl)-piperidin-1-yl]-2-phenyl-butan-1-one fumarate salt]
[1]
  IC50: 0.98 nM

## COc1ccsc1C1CCN(CC[C@H](C(=O)N2CCCCCC2)c2ccccc2)CC1 [Example 5, (2S)-1-(Azepan-1-yl)-4-[4-(3-methoxy-thiophen-2-yl)-piperidin-1-yl]-2-phenyl-butan-1-one dihydrochloride salt]
[1]
  IC50: 0.7 nM

## COc1ccsc1C1(O)CCN(CCC(C(=O)N2CCCCCC2)c2ccccc2)CC1 (stereo not drawn) [Example 1, 1-Azepan-1-yl-4-[4-hydroxy-4-(3-methoxy-thiophen-2-yl)-piperidin-1-yl]-2-phenyl-butan-1-one 0.75 hydroiodide]
  IC50: 0.8 nM

## O=C1CC2(CCCC2)CC(=O)N1CCCCN1CCN(c2ncccn2)CC1 [buspirone, reference compound]
Displacement of [^3 H]8-OHDPAT
  affinity for the serotonin 5-HT1A receptor (in words): potent affinity

## COc1ccsc1C1=CCN(CC[C@H](C(=O)N2CCCCCC2)c2ccccc2)CC1 [Example 4, (S)-1-Azepan-1-yl-4-[4-(3-methoxy-thiophen-2-yl)-1.2.3.6-tetrahydro-pyridin-1-yl]-2-phenyl-butan-1-one hydrochloride salt]
  IC50: 0.2 nM

## COc1ccsc1C1=CCN(CCC(C(=O)N2CCCCCC2)c2ccccc2)CC1 (stereo not drawn) [Example 2, 1-Azepan-1-yl-4-[4-(3-methoxy-thiophen-2-yl)-1,2,3,6-tetrahydro-pyridin-1-yl]-2-phenyl-butan-1-one]
  IC50: 0.25 nM
